Laboratory results as given in patent US9561289B2, “Peptides for inhibiting tumor growth” (OSPEDALE SAN RAFFAELE SRL, priority 2012, dated 2017).

Key:
WEHI-164 fibrosarcoma = assay: Tumor growth in WEHI-164 fibrosarcoma-bearing mice; type: in vivo; details: WEHI-164 model, i.p., biweekly, 0.032 to 20 μg
From the text: Arrows indicate the time of treatment. Tumor volumes are shown. Mean±S.E (6 or 12 mice/group).
Studies in animal models were approved by the Ethical Committee of the San Raffaele Scientific Institute, and performed according to the prescribed guidelines. BALB/c (Harlan) or C57BL/6N mice (Charles River Laboratories), weighing 16 to 18 g, were challenged with s.c. injection in the left flank of 10^6 WEHI-164 or 7×10^4 RMA living cells. […] Tumor growth was monitored daily by measuring tumor volumes with calipers, as previously described [30]. Animals were sacrificed before tumors reached a diameter of 1.0 to 1.5 cm. Tumor sizes are shown as mean±SE (6 mice/group in each experiment).

[1] = test system: CD13-positive (HT-1080 and HUVECs) cells; assay: Binding of NGR peptide/Qdot to CD13-positive cells (fluorescence microscopy); type: cell-based, human; details: 2 h at 37° C.
Procedure: (§1) (B) Binding of head-to-tail cyclized NGR peptides and disulphide constrained NGR peptide (ac-NGR-2C-TNF1-11, corresponding to acetylated-[…]) (SEQ ID NO:33) conjugated to fluorescent nanoparticles (Qdot) to HT-1080, human umbilical vein cells (HUVECs), and MCF-7 cells. NGR#/Qdots were prepared using the sulfo-SMCC linker (black, bars), whereas ac-NGR-2C-TNF1-11/Qdot were prepared using the BS3 linker (white, bars). Linker-Qdot, i.e. lacking the peptide, are indicated as None. Quantification of staining intensity was performed by using the Photoshop software. Six images were analyzed for each condition. Representative images are shown. Magnification, ×400; scale bar, 20 μm; red, Qdot; blue, nuclear staining with DAPI.
(§2) The binding of NGR-peptide/Qdot conjugates to HT-1080, HUVECs and MCF-7, was analyzed as follows: the cells were grown in chamber slides (3-4×10^4 cell/well, plated 48 h before the experiment). After washing with DMEM containing 1% fetal bovine serum (binding buffer), each NGR-peptide/Qdot conjugate (3-10 nM, in binding buffer) was added to the cells and left to incubate for 2 h at 37° C. in 5% CO2. […] The cells were then analyzed using an Axioscop 40 FL microscope (Carl Zeiss, Germany) equipped with AxioCam MRc5 digital camera and Axiovison software (Carl Zeiss).

[2] = test system: CD13-negative MCF-7 cells; assay: Binding of NGR peptide/Qdot to CD13-negative cells (fluorescence microscopy); type: cell-based, human
Procedure: as §1, §2

| Molecule | tumor growth (WEHI-164 fibrosarcoma) | binding to CD13-positive cells [1] | binding to CD13-negative cells [2] |
| --- | --- | --- | --- |
| CC(C)[C@H]1C(=O)N[C@@H](CCCNC(=N)N)C(=O)NCC(=O)N[C@@H](CC(=O)O)C(=O)N[C@H](Cc2ccccc2)C(=O)N1C [Cilengitide, cyclo(arginylglycyl-aspartyl-D-phenylalanyl-N-methyl-valyl)] | can delay the growth |  |  |
| NGR#3-Qdot: NGR#3 coupled to sulfo-SMCC-activated Qdot fluorescent nanoparticles (cyclo(CNGRGG); not fully specified (residue 1); also: linker joined to Qdot605 nanoparticle) |  | could bind CD13-positive cells | failed to bind |
